# Experimental data as given in patent US8530525B2 (priority 2009, dated 2013).
# pIC50: −log10 of the molar value.
# How the values were obtained:
# [1] = test system: population spikes (PS) recorded from the CA1 area of the rat hippocampal slice; format: cell-based
# [2] = test system: population spikes (PS) of the hippocampal slice
# α7 neuronal nAChR = α7 neuronal nAChR (Homo sapiens, UniProt P36544); conditions: cited from earlier work
# α3β4 = α3β4 (Homo sapiens, UniProt P30926+P32297); conditions: cited from earlier work
# [3] = in vivo; cited from earlier work
# Chain of α7 neuronal nAChR (P36544 23-502): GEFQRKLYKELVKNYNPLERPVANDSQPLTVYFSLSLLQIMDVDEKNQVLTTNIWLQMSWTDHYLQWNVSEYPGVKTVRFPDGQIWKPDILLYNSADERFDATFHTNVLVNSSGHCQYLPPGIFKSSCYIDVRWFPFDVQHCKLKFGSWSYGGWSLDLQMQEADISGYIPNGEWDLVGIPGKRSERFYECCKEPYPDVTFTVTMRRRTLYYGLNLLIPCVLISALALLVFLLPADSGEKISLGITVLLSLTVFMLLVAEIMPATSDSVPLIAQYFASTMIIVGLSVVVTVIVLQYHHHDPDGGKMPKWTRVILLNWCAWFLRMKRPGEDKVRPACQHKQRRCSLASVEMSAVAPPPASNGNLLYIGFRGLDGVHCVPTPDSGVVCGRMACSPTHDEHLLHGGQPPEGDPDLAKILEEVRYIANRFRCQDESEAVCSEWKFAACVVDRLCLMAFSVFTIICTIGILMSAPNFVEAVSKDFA
# Chain of α3β4 (P32297 32-505): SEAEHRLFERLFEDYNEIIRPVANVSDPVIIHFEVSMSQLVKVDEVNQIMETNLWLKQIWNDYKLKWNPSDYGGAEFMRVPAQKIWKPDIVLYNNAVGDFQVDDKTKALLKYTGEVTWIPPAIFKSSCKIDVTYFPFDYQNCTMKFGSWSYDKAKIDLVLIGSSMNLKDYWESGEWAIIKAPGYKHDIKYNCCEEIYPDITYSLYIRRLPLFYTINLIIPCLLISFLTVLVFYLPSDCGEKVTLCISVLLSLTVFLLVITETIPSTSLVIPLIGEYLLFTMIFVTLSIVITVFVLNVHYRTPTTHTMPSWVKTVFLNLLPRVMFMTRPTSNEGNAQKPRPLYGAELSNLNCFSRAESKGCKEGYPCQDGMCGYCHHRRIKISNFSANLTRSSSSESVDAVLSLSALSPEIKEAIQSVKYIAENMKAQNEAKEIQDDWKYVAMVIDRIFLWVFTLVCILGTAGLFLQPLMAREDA
# Chain of α3β4 (P30926 22-498): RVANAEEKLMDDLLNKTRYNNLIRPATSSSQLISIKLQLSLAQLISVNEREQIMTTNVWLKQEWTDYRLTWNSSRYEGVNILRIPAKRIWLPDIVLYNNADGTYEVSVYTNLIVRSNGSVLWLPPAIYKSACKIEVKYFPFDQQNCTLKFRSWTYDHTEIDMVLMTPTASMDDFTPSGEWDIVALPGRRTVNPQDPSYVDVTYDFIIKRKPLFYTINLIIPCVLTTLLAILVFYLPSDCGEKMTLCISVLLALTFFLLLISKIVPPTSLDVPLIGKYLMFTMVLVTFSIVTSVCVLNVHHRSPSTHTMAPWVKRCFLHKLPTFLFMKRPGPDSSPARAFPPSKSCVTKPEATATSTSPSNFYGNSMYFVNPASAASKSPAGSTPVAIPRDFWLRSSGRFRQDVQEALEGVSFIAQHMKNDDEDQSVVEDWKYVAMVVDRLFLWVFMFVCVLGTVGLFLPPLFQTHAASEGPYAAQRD
compound,measurement,setting,value
"CCOP(=O)(OCC)Oc1ccc([N+](=O)[O-])cc1 [POX, paraoxon]",Maximum inhibition of the PS,[1],~50%
same,pIC50,[1]; read-out: POX IC50 for inhibition of PS,~6.00
CN1[C@@H]2CC[C@H]1C[C@@H](OC(=O)C(CO)c1ccccc1)C2 (stereo partly shown) [atropine],Effect on PS area,[2],did not affect PS area
"CC1=CC(O)CC(C)(O)C=CC(C(C)C)CCC(C)=CCC1 [4R cembranoid, (1S,2E,4R,6R,7E,11E)-cembra-2,7,11-triene-4,6-diol]",Antagonism of α7 neuronal nAChR,α7 neuronal nAChR,subtype selective antagonist
same,Activity at α3β4 subtypes,α3β4,little activity
same,Brain penetration,[3],readily penetrates into the brain
same,Metabolism and excretion,[3],promptly metabolized in the liver and excreted as a soluble metabolite
